≈ marks a conversion by molar mass, not a printed value. Residues, ends and D or L forms follow the SMILES beside them.
Columns and labels:
physchem = format: physicochemical
Description: The molecular weight of the peptide is 2776 and 3388 with counter ions. The peptide is water-soluble and forms an alpha helical secondary protein structure.

rats = assay: Acute toxicity test of the peptide in rats; format: in vivo; conditions: 8.95 mg/kg intraperitoneal, single dose, inspected at 3rd, 6th, 12th and 24th hour, animals active on 14th day
Protocol: (§1) The safety of the peptide was tested with mice and rats at age of 4 to 6 weeks. The tests were conducted with five female mice and rats and five male mice and rats. The dose of the peptide injected intraperitoneal was 8.95 mg/kg for rats and 12.53 mg/kg for mice. The acute toxicity test was conducted at 3rd, 6th, 12th and 24th hour after exposure to the peptide. […] The animals were active still on 14th day.

mice = assay: Acute toxicity test of the peptide in mice; format: in vivo; conditions: 12.53 mg/kg intraperitoneal, single dose, inspected at 3rd, 6th, 12th and 24th hour, animals active on 14th day
Protocol: as §1

## C[C@H](NC(=O)[C@H](Cc1ccccc1)NC(=O)[C@H](C)NC(=O)[C@H](Cc1ccccc1)NC(=O)[C@H](CCCCN)NC(=O)[C@H](C)NC(=O)[C@H](Cc1ccccc1)NC(=O)[C@H](CCCCN)NC(=O)[C@H](CCCCN)NC(=O)[C@H](C)NC(=O)[C@H](Cc1ccccc1)NC(=O)[C@H](CCCCN)NC(=O)[C@H](CCCCN)NC(=O)[C@H](Cc1ccccc1)NC(=O)[C@H](CCCCN)NC(=O)[C@H](CCCCN)NC(=O)[C@H](C)NC(=O)[C@H](Cc1ccccc1)NC(=O)[C@H](CCCCN)NC(=O)[C@H](CCCCN)NC(=O)[C@H](C)NC(=O)[C@@H](N)Cc1ccccc1)C(=O)N[C@@H](Cc1ccccc1)C(=O)O [peptide] (H-FAKKFAKKFKKFAKKFAKFAFAF-OH; N-terminus and C-terminus assumed)
physchem
  Solubility in 10% DMSO in saline: 32.25 mM (≈ 89.5 mg/mL)
physchem; saline or isotonic
  solubility: 31.6 mM (≈ 87.6 mg/mL)
rats
  Acute lethality: No lethality was found
mice
  Acute lethality: No lethality was found

Source: patent US7288622B1, “Composition for treatment of burns and wounds” (Issar Pharmaceuticals Pvt Ltd, priority 2006, dated 2007)
